Test results: ChEMBL document CHEMBL1772976, “Bathymodiolamides A and B, ceramide derivatives from a deep-sea hydrothermal vent invertebrate mussel, Bathymodiolus thermophilus” (J Nat Prod, 2011)

Tests used:
[1] = tested on: MCF7; assay: Cytotoxicity against human MCF7 cells after 48 hrs by MTT assay; type: functional, cell-based; details: MCF7, 48 h
[2] = tested on: HeLa; assay: Cytotoxicity against human HeLa cells after 48 hrs by MTT assay; type: functional, cell-based

CCC/C=C\C/C=C\C/C=C\CCCCC(=O)O[C@@H](COC(=O)CCCCCCCCCCCCCCC)[C@H](O)[C@H](CO)NC(=O)CCCCCCCCCCC [BATHYMODIOLAMIDE A]
IC50 [1]: 100 nM
IC50 [2]: 400 nM

CCC/C=C\C/C=C\CCC(=O)O[C@@H](COC(=O)CCCCCCCCCCCCC)[C@H](O)[C@H](CO)NC(=O)CCCCCCCCCCC [BATHYMODIOLAMIDE B]
IC50 [1]: 200 nM
IC50 [2]: 500 nM
